The values that follow come from US9394233B2, “ROS-activated compounds as selective anti-cancer therapeutics” (University of Cincinnati, priority 2012, dated 2016).

Where two headings read alike, the source gives them in different places.

Data set [1] deals with MA9.3 AML cells. Description: AML cytotoxicity, MTT assay on MA9.3 AML cell line. In kind it is cell-based, human. Particulars: read-out: IC50 against MA9.3 AML cells. The source says:
(§1) To assess the anti-cancer activity against AML, transformed cells were compared to closely related, non-transformed counterparts. In the case of AML, the generally accepted non-transformed cell of origin is the human CD34+ blood stem/progenitor cell. Assessing potency against normal blood stem cells is important since, without selective cytotoxicity, an agent will yield reduced efficacy and therapeutic potential. […] Therefore, a comparison of current agents and the ROS-activated compounds disclosed herein was carried out. (FIG. 3). Cytotoxicity was measured via MTT assay on CD34+ blood stem/progenitor cells (grey lines) and on the MA9.3 AML cell line (black lines), which was derived from the transformation of human CD34+ cells by introduction of the leukemia oncogene MLL-AF9.

Data set [2] deals with human CD34+ blood stem/progenitor cells. Description: Cytotoxicity, MTT assay on CD34+ blood stem/progenitor cells. In kind it is cell-based. Particulars: normal blood stem cells, read-out: IC50 against CD34+ blood stem/progenitor cells.
Description: as §1
For orientation: Tetrazolium assays rely on reduction of a dye to a coloured formazan, in cell work by metabolically active cells.

Data set [3] has as its system 392-nucleotide dsDNA. Nature of the data set: Primer extension assay on 392-nucleotide dsDNA (DNA modification). In kind it is biochemical. Particulars: dsDNA treated with agent; compound 25 followed by oxidative activation (Na2IrCl6).
Data set [4] concerns HeLa cells. Nature of the data set: HeLa cell viability, MTT assay. In kind it is cell-based. Particulars: Homo sapiens, 50% reduction in percent of viable HeLa cells, read-out: IC50 against HeLa Cells. On the procedure: Table 1 sets forth ROS-Activated compounds of the present invention, together with their IC50 values corresponding to a 50% reduction in the percent of viable HeLa cells in vitro as measured via MTT assay.
All synthesized compounds were purified to greater than 98% purity prior to cell testing. HeLa cell viability assays were performed using an MTT assay.
The general structure of the ROS-activated compounds disclosed herein was probed to determine how positions in the structure alter potency in aqueous media. Compounds were screened against HeLa cells to determine IC50 values. Cell viability was monitored by an MTT dye that forms a purple formazan product in viable cells that are undergoing metabolism. […] Errors reported are between two separate experiments; independent curve-fitting had r greater than 0.95).

For data set [5], the system named is NCI-60 cell panel. Description: NCI-60 cell panel, Sulforhodamine B growth inhibition. Particulars: distribution of GI50 over NCI-60 panel. In kind it is cell-based. The protocol:
(§2) Compounds 25 and 9 were evaluated for effects on the viability of the cell lines in the NCI-60 cell panel. […] Data is reported as growth inhibition GI50, rather than IC50, to reflect the change in cell counts relative to the starting number of cells.

Data set [6] relates to leukemia cell lines. Nature of the data set: NCI-60 Sulforhodamine B growth inhibition, leukemia cell lines. In kind it is cell-based. Particulars: median in all leukemia cell lines tested. On the procedure:
as §2
(§3) Growth inhibition pattern induced by 25 and 9 based on the type of cancer was also analyzed. […] The majority of leukemia and renal cancer cell lines were above the median, indicating enhanced sensitivity to ROS-activating compounds. The current results further substantiate renal carcinoma as a potential target.

Data set [7] has as its system CCRF-CEM. Nature of the data set: NCI-60 Sulforhodamine B growth inhibition, CCRF-CEM. Particulars: Homo sapiens, ALL model line. In kind it is cell-based. On the procedure:
as §2, §3

Data set [8] deals with MOLT-4. Nature of the data set: NCI-60 Sulforhodamine B growth inhibition, MOLT-4. In kind it is cell-based. Particulars: Homo sapiens; MOLT-4, ALL model line. The protocol:
as §2, §3

For data set [9], the system named is RPMI-8226. Nature of the data set: NCI-60 Sulforhodamine B growth inhibition, RPMI-8226. In kind it is cell-based. Particulars: Homo sapiens; RPMI-8226, plasmacytoma and myeloma cell line. The protocol:
as §2, §3

Data set [10] concerns HL-60. Nature of the data set: NCI-60 Sulforhodamine B growth inhibition, HL-60. In kind it is cell-based. Particulars: Homo sapiens; HL-60, acute promyelocytic leukemia model. The protocol:
as §2, §3

The test system of data set [11] is renal and CNS cancer cell lines. Description: Sulforhodamine B viability assay, renal and CNS cancer cell lines. In kind it is cell-based. Particulars: panels of renal and CNS cancer cell lines, errors less than 25%.
A short description of data set [12]: Oxidation and ROS-dependent hydrolysis of compound 3, monitored by reverse-phase HPLC. In kind it is physicochemical. An excerpt:
The oxidative and ROS-activation of the instantly disclosed compounds was investigated. Water, one of the simplest nucleophile substrates, was examined under different oxidative conditions (FIG. 5). A model ROS-activated compound, compound 3, was used to explore the chemical reactivity of these agents (FIG. 5A).
Hydrolysis of compound 3 as a function of time was quantified by separation of the reaction products by reverse-phase HPLC (FIG. 5B). […] To obtain quantifiable data, time points were taken daily over one week.
Addition of the one-electron oxidant, […], led to quantitative hydrolysis of compound 3 with a half-life of 0.4±0.2 hours (FIG. 5B). The oxidation potential of Ir(IV) is 0.7 volts vs. Ag/AgCl making it an appropriate choice for oxidation of hydroquinone derivatives. In additional to oxidation, cells produce reactive oxygen species in the forms of hydroxyl radical and singlet oxygen. Copper and hydrogen peroxide can be used to produce hydroxyl radical. […] The extent of hydrolysis was dependent on the hydrogen peroxide concentration and was slow due to lack of ascorbate (data not shown). Oxidases like horseradish peroxidase reduce molecular oxygen to either hydrogen peroxide or water and at the same time oxidize a substrate with an appropriate potential. The oxidation of compound 3 was difficult to measure via HPLC since after one minute approximately half (53±13%) of compound 3 was hydrolyzed.

Data set [13] relates to Drosophila. Nature of the data set: Drosophila survival after microinjection, Ercc1 RNAi knockdown versus control. Particulars: 0.5 μL of 10 mM injected.

Take `N.N.[Cl][Pt][Cl]` [cisplatin]: the IC50 in data set [1] is 14 ± 0.7 µM; in data set [2] it was 15 ± 2 µM. Moreover, the “full-length extension product yield” value in [3] is given as “no full-length extension product”.

With `CCN(CCSc1ccc(O)cc1)c1ccccc1` [Compound 15, 4-((2-(ethyl(phenyl)amino)ethyl)thio)phenol], in data set [4], the IC50 is 46 µM.

`CN(CCCCOc1ccc(O)cc1)c1ccccc1` [Compound 11, 4-(4-(methyl(phenyl)amino)butoxy)phenol]: the IC50 in data set [4] stood at 8 µM.

`O=C(O)CCCc1ccc(N(CCOc2ccc(O)cc2)CCOc2ccc(O)cc2)cc1` [Compound 28, 4-(4-(bis(2-(4-hydroxyphenoxy)ethyl)amino)phenyl)butanoic acid]: the IC50 in data set [4] came out at 67 µM.

On to `Nc1ccn([C@@H]2O[C@H](CO)[C@@H](O)[C@@H]2O)c(=O)n1` [ara-C, cytosine arabinoside], for which the figures for the IC50 in [1] and in data set [2] were 0.92 ± 0.03 µM and 0.59 ± 0.09 µM, respectively.

Regarding `Oc1ccc(O)cc1` [Hydroquinone, reference compound], the IC50 in data set [4] came out at 161 µM.

On to `CCN(CCCCOc1ccc(O)cc1)c1ccccc1` [Compound 12, 4-(4-(ethyl(phenyl)amino)butoxy)phenol], for which, in [4], the IC50 came to 14 µM.

`O=C1C=CC(=O)C=C1` [benzoquinone, reference compound]: in [4], the IC50 was 227 µM.

As for `CN(CCOc1ccc(O)cc1)c1ccccc1` [Compound 2, 4-(2-(methyl(phenyl)amino)ethoxy)phenol], the IC50 in data set [4] was 18 µM.

As to `Oc1ccc(OCCNc2ccc(Br)cc2)cc1` [Compound 7, 4-(2-((4-bromophenyl)amino)ethoxy)phenol], the IC50 in data set [4] was determined as 31 µM.

A word on the GI50: it is the concentration that inhibits growth by half. A low value points to greater sensitivity of the cells. Consider `CN(CCCOc1ccc(O)cc1)c1ccccc1` [Compound 9, 4-(3-(methyl(phenyl)amino)propoxy)phenol], for which the IC50 is 7 µM in data set [4], 0.7 ± 0.2 µM in data set [1] (Homo sapiens), 5.4 ± 0.9 µM in [2] (Homo sapiens) and “micromolar range” in data set [11]. In addition, the “range of GI50 values” in data set [5] was found to be 53 fold. Besides, the GI50 in data set [6] stood at 1.9 µM; in [7], 0.263 µM; in data set [8] it was 2 µM; in data set [9] it was 1.2 µM; in data set [10] it was 0.9 µM.

On to `CN(CCCSc1ccc(O)cc1)c1ccccc1` [Compound 16, 4-((3-(methyl(phenyl)amino)propyl)thio)phenol], for which the IC50 in data set [4] was 44 µM.

For `O=C(O)CCCc1ccc(N(CCCl)CCCl)cc1` [chlorambucil], the figures for the IC50 in data set [1] (Homo sapiens) and in data set [2] (Homo sapiens) were 8.7 ± 0.3 µM and 11 ± 1 µM, respectively.

As to `CCN(CCOc1ccc(NC(C)=O)cc1)c1ccccc1` [Compound 21, N-(4-(2-(ethyl(phenyl)amino)ethoxy)phenyl)acetamide], the IC50 in data set [4] amounted to 45 µM.

With `COc1ccc(N(C)CCOc2ccc(O)cc2)cc1` [Compound 6, 4-(2-((4-methoxyphenyl)(methyl)amino)ethoxy)phenol], the IC50 in data set [4] came to 13 µM.

`CCN(CCOc1ccccc1O)c1ccccc1` [Compound 19, 2-(2-(ethyl(phenyl)amino)ethoxy)phenol]: in [4], the IC50 was determined as 77 µM.

In the case of `COC(=O)CCCc1ccc(N(CCOc2ccc(O)cc2)CCOc2ccc(O)cc2)cc1` [Compound 27, methyl 4-(4-(bis(2-(4-hydroxyphenoxy)ethyl)amino)phenyl)butanoate], the IC50 in [4] came out at 77 µM.

Turning to `CCN(CCOc1ccc(N)cc1)c1ccccc1` [Compound 20, N-(2-(4-aminophenoxy)ethyl)-N-ethylaniline], the IC50 in [4] is above 125 µM.

What is called half-life is the time needed for the level to fall by half in the phase considered. High values mean slow decline, low ones rapid decline. As for `CCN(CCOc1ccc(O)cc1)c1ccccc1` [Compound 3, 4-(2-(ethyl(phenyl)amino)ethoxy)phenol], the IC50 in [4] came to 23 µM. For the same compound, the half-life was 0.4 ± 0.2 h in data set [12] (one-electron oxidant Na2Ir2Cl6 added, addition of one-electron oxidant Na2Ir2Cl6); 12.1 h in data set [12] (oxidation by copper chloride-hydrogen peroxide (hydroxyl radical)); 693 ± 42 h in data set [12] (phosphate buffer, no oxidant, assuming first order kinetics). Besides, the “death on Day 1” value in data set [13] (Drosophila lacking Ercc1 expression (da-GAL4/UAS-Ercc1RNAi)) came out at 60%; in [13] (control flies with wild-type Ercc1 expression (da-GAL4/+)) it was 10%.

For the compound `CN(CCOc1ccc(O)cc1)Cc1ccccc1` [Compound 8, 4-(2-(benzyl(methyl)amino)ethoxy)phenol], the IC50 in [4] was found to be 30 µM.

Take `CC(C)N(CCOc1ccc(O)cc1)c1ccccc1` [Compound 4, 4-(2-(isopropyl(phenyl)amino)ethoxy)phenol]: in [4], the IC50 is 53 µM.

On to `COc1ccc(NCCOc2ccc(O)cc2)cc1` [Compound 5, 4-(2-((4-methoxyphenyl)amino)ethoxy)phenol], for which the IC50 in [4] was 24 µM.

Regarding `CCN(CCOc1ccc(N2CCCCC2)cc1)c1ccccc1` [Compound 22, N-ethyl-N-(2-(4-(piperidin-1-yl)phenoxy)ethyl)aniline], in data set [4], the IC50 was above 125 µM.

Regarding `COc1ccc(N(CCOc2ccc(O)cc2)CCOc2ccc(O)cc2)cc1` [Compound 26, 4,4′-((((4-methoxyphenyl)azanediyl)bis(ethane-2,1-diyl))bis(oxy))diphenol], the IC50 in data set [4] was 15 µM.

Take `CCN(CCOc1cccc(O)c1)c1ccccc1` [Compound 18, 3-(2-(ethyl(phenyl)amino)ethoxy)phenol]: the IC50 in [4] came to 44 µM.

On to `CCN(CCOc1ccc(OC)cc1)c1ccccc1` [Compound 24, N-ethyl-N-(2-(4-methoxyphenoxy)ethyl)aniline], for which the IC50 in [4] is above 125 µM.

For `Oc1ccc(OCCNc2ccccc2)cc1` [Compound 1, 4-(2-(phenylamino)ethoxy)phenol], in data set [4], the IC50 was 30 µM.

For `CN(CCCCCOc1ccc(O)cc1)c1ccccc1` [Compound 13, 4-(5-(methyl(phenyl)amino)pentyloxy)phenol], the IC50 in [4] was 9 µM.

On to `CC(=O)Oc1ccc(OCCN(CCOc2ccc(OC(C)=O)cc2)c2ccccc2)cc1` [Compound 29, (((phenylazanediyl)bis(ethane-2,1-diyl))bis(oxy))bis(4,1-phenylene) diacetate], for which, in data set [4], the IC50 is 12 µM.

Regarding `CCN(CC(=O)Nc1ccc(O)cc1)c1ccccc1` [Compound 17, 2-(ethyl(phenyl)amino)-N-(4-hydroxyphenyl)acetamide], the IC50 in [4] was found to be 108 µM.

Consider `CCN(CCCOc1ccc(O)cc1)c1ccccc1` [Compound 10, 4-(3-(ethyl(phenyl)amino)propoxy)phenol], for which the IC50 in data set [4] worked out at 16 µM.

On to `COc1cccc2c1C(=O)c1c(O)c3c(c(O)c1C2=O)C[C@@](O)(C(=O)CO)C[C@@H]3O[C@H]1C[C@H](N)[C@H](O)[C@H](C)O1` [doxorubicin], for which the IC50 in data set [1] (Homo sapiens) is 0.086 ± 0.05 µM; in data set [2] (Homo sapiens) it was 0.076 ± 0.018 µM.
